Reference: US20080194585A1, “Fungicidal Pyrazine Derivatives” (priority 2005, published 2008)

How the values were obtained:
Settings in all cases: 200 ppm
Plasmopara viticola = assay: Test D: grape downy mildew, spray after inoculation of grape seedlings; type: in vivo
Excerpt: Upon removal, disease ratings were made. […] A dash (-) indicates no test results.

Phytophthora infestans = assay: whole plant or invertebrate; type: in vivo
Septoria tritici = assay: Test J: wheat leaf blotch, preventive spray on wheat seedlings; type: in vivo
Excerpt: A dash (-) indicates no test results.

fusarium graminearium = assay: Test I: wheat head scab, preventive spray on wheat seedlings
Description: (the causal agent of wheat head scab) and incubated in a saturated atmosphere at 20° C. for 72 h, and then moved to a growth chamber at 22° C. for 5 days, after which disease ratings were made.

[1] = tested on: Puccinia recondita f. sp. tritici; assay: Test K: wheat leaf rust, preventive spray on wheat seedlings
Botrytis cinerea = assay: Test E: tomato botrytis, preventive spray on tomato seedlings
Septoria nodorum = assay: Test H: wheat glum blotch, preventive spray on wheat seedlings
Description: (the causal agent of wheat glum blotch) and incubated in a saturated atmosphere at 20° C. for 48 h, and then moved to a growth chamber at 22° C. for 5 days, after which disease ratings were made.

[2] = tested on: Erysiphe graminis f. sp. tritici; assay: Test L: wheat powdery mildew, preventive spray on wheat seedlings
Pythium aphanidermatum = assay: Test A: bluegrass pythium blight, preventive spray on bluegrass seedlings
Rhizoctonia oryzae = assay: Test G: turf brown patch, preventive spray on creeping bent grass seedlings
Description: (the causal agent of turf brown patch) and incubated in a saturated atmosphere at 27° C. for 24 h, and then moved to a growth chamber at 27° C. for 5 days, after which disease ratings were made.

[3] = tested on: Colletotrichum orbiculare; assay: Test B: cucumber Colletotrichum anthracnose, preventive spray on cucumber seedlings

SMILES	Test D disease control rating (Plasmopara viticola) [%]	Test F disease control rating (Phytophthora infestans) [%]	Test J disease control rating (Septoria tritici) [%]	Test I disease control rating (fusarium graminearium) [%]	Test K disease control rating [1] [%]	Test E disease control rating (Botrytis cinerea) [%]	Test H disease control rating (Septoria nodorum) [%]	Test L disease control rating [2] [%]	Test A disease control rating (Pythium aphanidermatum) [%]	Test G disease control rating (Rhizoctonia oryzae) [%]	Test B disease control rating [3] [%]
O=c1c(-n2cncn2)nc(Cl)c(-c2c(F)cccc2F)n1CC1CC1 [compound 17]	54	0	87	94	100	100	100	99	0	99	0
CC(C)Cn1c(-c2ccc(Cl)cc2)c(Cl)nc(-n2cccn2)c1=O [compound 22]	0	0	98	0	79	100	0	0	0	0	0
CCCC(C)n1c(-c2c(F)cccc2F)c(Cl)nc(-n2cccn2)c1=O (stereo not shown) [compound 25]	0	0	100	0	100	99	100	100	0	100	100
CC(C)n1c(-c2c(F)cccc2F)c(Cl)nc(-n2cccn2)c1=O [compound 26]	16	0	96	0	100	100	100	100	0	92	99
CCCn1c(-c2c(F)cccc2F)c(Cl)nc(-n2cccn2)c1=O [compound 27]	47	0	100	0	100	100	100	100	0	67	99
CCCCCn1c(-c2c(F)cccc2F)c(Cl)nc(-n2cccn2)c1=O [compound 28]	0	0	100	0	97	92	99	97	0	31	98
CC(C)C(C)n1c(-c2c(F)cccc2F)c(Cl)nc(-n2cccn2)c1=O (stereo not shown) [compound 29]	0	0	100	0	100	80	99	98	0	95	99
C=C(C)Cn1c(-c2c(F)cccc2F)c(Cl)nc(-n2cccn2)c1=O [compound 30]	0	0	100	0	100	99	100	100	0	98	99
